Assay results as given in ChEMBL document CHEMBL1154348, “Arginine-pyrimidine conjugates with therapeutic and prophylactic activity in lethal bacterial infections” (Bioorg Med Chem Lett, 2009).
Calls of active or inactive are those of the source. The rule behind the calls is not given here.

Columns and labels:
[1] = Therapeutic efficacy against Staphylococcus aureus infected lethal mouse sepsis model assessed as survival at 30 mg/kg, ip administered 0.5 hrs and 4 hrs post infection; assay type: organism-based; set-up: dose 30 mg/kg, route intraperitoneal; settings: in vivo
[2] = Therapeutic efficacy against Escherichia coli infected lethal mouse sepsis model assessed as survival at 30 mg/kg, ip administered 0.5 hrs and 4 hrs post infection; assay type: organism-based; set-up: dose 30 mg/kg, route intraperitoneal; settings: in vivo
Escherichia coli [3] = experiment: Prophylactic efficacy against Escherichia coli infected lethal mouse sepsis model assessed as survival at 50 mg/kg, ip administered 0.5 hrs before infection; assay type: functional; settings: route intraperitoneal
Escherichia coli [4] = experiment: Antibacterial activity against Escherichia coli; assay type: functional
Escherichia coli [5] = experiment: Antibacterial activity against Escherichia coli infected lethal mouse sepsis model assessed as reduction in bacterial load in mouse blood at 50 mg/kg, ip administered as single dose 0.5 hrs post infection measured after 5 hrs; assay type: functional; settings: route intraperitoneal
Streptococcus pyogenes = experiment: Antibacterial activity against Streptococcus pyogenes infected in cyclophosphamide-treated immunocompromized mouse assessed as inhibition of muscle infection; assay type: functional, organism-based; settings: Muscle tissue
Escherichia coli [6] = experiment: Prophylactic efficacy against Escherichia coli infected lethal mouse sepsis model assessed as survival at 50 mg/kg, ip administered 1 hr before infection; assay type: functional; settings: route intraperitoneal
Escherichia coli [7] = experiment: Prophylactic efficacy against Escherichia coli infected lethal mouse sepsis model assessed as survival at 50 mg/kg, ip administered 2 hrs before infection; assay type: functional; settings: route intraperitoneal
Pseudomonas aeruginosa = experiment: Antibacterial activity against Pseudomonas aeruginosa infected in cyclophosphamide-treated immunocompromized mouse assessed as inhibition of wound infection; assay type: functional, organism-based
Mus musculus [8] = experiment: Subchronic toxicity in mouse up to 450 mg/kg, ip after 5 days; assay type: organism-based; set-up: dose 450 mg/kg, route intraperitoneal; settings: in vivo, 120 h
Escherichia coli [9] = experiment: Prophylactic efficacy against Escherichia coli infected lethal mouse sepsis model assessed as survival at 50 mg/kg, ip administered 3 hrs before infection; assay type: functional; settings: route intraperitoneal
[10] = Cmax in mouse at 100 mg/kg, ip after 30 mins; assay type: ADME, organism-based; set-up: dose 100 mg/kg, route intraperitoneal; settings: in vivo
[11] = Half life in mouse at 100 mg/kg, ip after 30 mins; assay type: ADME, organism-based; set-up: dose 100 mg/kg, route intraperitoneal; settings: in vivo
Escherichia coli [12] = experiment: Antibacterial activity against Escherichia coli infected lethal mouse sepsis model assessed as reduction in bacterial load in mouse blood at 50 mg/kg, ip administered 0.5 hrs and 4 hrs post infection measured after 5 hrs; assay type: functional; settings: route intraperitoneal
Plasma = experiment: Stability in mouse plasma after 3 hrs; assay type: ADME, cell-free
Staphylococcus aureus = experiment: Antibacterial activity against Staphylococcus aureus; assay type: functional
Mus musculus [13] = experiment: Acute toxicity in mouse up to 450 mg/kg, ip after 5 days; assay type: organism-based; set-up: dose 450 mg/kg, route intraperitoneal; settings: in vivo, 120 h

Compound | Efficacy [1] | Efficacy [2] | Efficacy (Escherichia coli [3]) | MIC (Escherichia coli [4]) | CFU (Escherichia coli [5]) | Activity (Streptococcus pyogenes) | Efficacy (Escherichia coli [6]) | Efficacy (Escherichia coli [7]) | Activity (Pseudomonas aeruginosa) | Activity (Mus musculus [8]) | Efficacy (Escherichia coli [9]) | Cmax [10] | half-life [11] | CFU (Escherichia coli [12]) | Stability (Plasma) | MIC (Staphylococcus aureus) | Activity (Mus musculus [13])
O=C(O)c1cn(C2CC2)c2cc(N3CCNCC3)c(F)cc2c1=O [CIPROFLOXACIN] | 40% | 60% |  |  |  |  |  |  |  |  |  |  |  |  |  |  | 
CN(CCCNC(=O)[C@@H](N)CCCNC(=N)N)c1ncccn1 | 40% | 40% |  |  |  |  |  |  |  |  |  |  |  |  |  |  | 
CN(CCCN(C)c1ncccn1)C(=O)[C@@H](N)CCCNC(=N)N | 60% | 80% | 80% | > 250 µg/mL | 2.7 ×10³ /ml | inactive | 80% | 60% | inactive | Non-toxic | 40% | 56 µg/mL | 1 h | 3.7 ×10² /ml | Stable | > 250 µg/mL | Non-toxic
